The results in this text go back to article PMC12030059, “Mechanistic Advances in the Therapeutic Application of Bixin for Lung Inflammation In Vitro and In Vivo” (Pharmaceuticals, 2025).

Data set [1] can be described thus: Solubility tests of the potassium salt. The data set is classed as physicochemical.
Another data set concerns the target Nrf2/ARE axis. The data set can be described thus: Luciferase ARE reporter assay. Format: cell-based. The note with it: RAW 264.7 transfected with ARE luciferase reporter, 0–200 μM; read-out: EC50 in activating the Nrf2/ARE axis. As for the experimental part: RAW 264.7 cells (3.5 × 10^5 cells/well) were seeded into 24-well plates in FBS-free DMEM. Next day, cells were transfected with the ARE-responsive luciferase reporter kit (#60514, BPS Bioscience, San Diego, CA, USA) in Opti-MEM containing Lipofectamine 2000 and incubated for 24 h. After stimulation with different concentrations of potassium bixinate (0–200 μM), the luciferase-containing medium was collected and incubated with luciferin substrate (Dual Luciferase Assay System) (#60683-1, BPS Bioscience, San Diego, CA, USA) according to the manufacturer’s instructions. Luminescence emitted by luciferin cleavage was measured using the Varioskan LUX plate reader (ThermoFisher Scientific, Waltham, MA, USA).

The nature of data set [2]: Rat liver microsomal stability in the absence of cofactors (NADPH generating system). The data set is classed as in vitro ADME. The note with it: rat liver microsomes without NADPH cofactors, 4 h, 50 μM, 37 °C. As for the experimental part:
A final solution of microsomes (1 mg/mL protein) in 250 μL of PBS at pH 7.4 containing 50 μM of bixin was prepared in the absence of an NADPH-regenerating metabolic cofactor system. The bixin was incubated with rat microsomes under these conditions for 0, 30, 60, 120, and 240 min with shaking in a water bath at 37 °C. The subsequent steps for protein precipitation, bixin extraction, and HPLC analysis were identical to those described for the rat plasma stability assay.

A short description of data set [3]: PAMPA-GIT permeability assay. Format: in vitro ADME. An excerpt:
The parallel artificial membrane permeability assay (PAMPA) utilizes a 96-well plate system in a “sandwich” format, where one plate is positioned above another (PAMPA). The upper plate, known as the donor compartment, contains the compounds (test or control) dissolved in a buffered solution. […] The lipid composition of the PVDF filter varies depending on the type of permeability test. For gastrointestinal tract (GIT) permeability assessments, L-α-soy phosphatidylcholine in dodecane is used. Optical density values are measured at specified wavelengths for each compound and compared against controls. For GIT permeability, the absorbed fraction (Fa%) and permeability (Pe) are determined. […] Compounds for these assays were diluted from a 10 mM stock solution. These assays were conducted using a 1 mg/mL stock solution per compound.
For orientation: PAMPA measures passive passage across an artificial lipid membrane.

potassium bixinate [KBx]: in data set [1], the “aqueous solubility relative to bixin” value is given as “significant increase in the aqueous solubility”. The EC50 at Nrf2/ARE axis amounted to 46 µM.

For the compound `COC(=O)/C=C/C(C)=C\C=C\C(C)=C\C=C\C=C(C)\C=C\C=C(C)\C=C\C(=O)O` [HBx, (2E,4E,6E,8E,10E,12E,14E,16Z,18E)-20-methoxy-4,8,13,17-tetramethyl-20-oxoicosa-2,4,6,8,10,12,14,16,18-nonaenoic acid], in data set [2], the “initial concentration maintained in microsomes” value is reported as roughly 100%. In addition, in data set [3] (L-α-soy phosphatidylcholine in dodecane, read-out: Experimental Pe), the Papp was determined as 0.36 ×10⁻⁶ cm/s. The “Experimental Fa” value in data set [3] (absorbed fraction) came to 12.79%.
